The subject of one assay is Staphylococcus aureus. As to the kind of experiment: Anti-MDR bacterial activity against Staphylococcus aureus CCARM 3090 assessed as inhibition of bacterial growth incubated for 18 hrs by microplate reader analysis. Format: functional.
The next assay has as its system Enterococcus faecalis. As to the kind of experiment: Anti-MDR bacterial activity against Enterococcus faecalis CCARM 5172 assessed as inhibition of bacterial growth incubated for 18 hrs by microplate reader analysis. Format: functional.
A further assay concerns Escherichia coli. As to the kind of experiment: Anti-MDR bacterial activity against Escherichia coli CCARM 1009 assessed as inhibition of bacterial growth incubated for 18 hrs by microplate reader analysis. Format: functional.
The subject of another assay is Salmonella typhimurium. As to the kind of experiment: Anti-MDR bacterial activity against Salmonella typhimurium CCARM 8250 assessed as inhibition of bacterial growth incubated for 18 hrs by microplate reader analysis. Format: functional, Salmonella enterica subsp. enterica serovar Typhimurium. To be noted: Salmonella enterica.
The next assay has as its system Pseudomonas aeruginosa. The assay is described as follows: Anti-MDR bacterial activity against Pseudomonas aeruginosa 15690 assessed as inhibition of bacterial growth incubated for 18 hrs by microplate reader analysis. Format: functional.
The next assay concerns Micrococcus luteus. The assay is described as follows: Anti-MDR bacterial activity against Micrococcus luteus ML01 assessed as inhibition of bacterial growth incubated for 18 hrs by microplate reader analysis. Format: functional.
The next assay has as its system Enterococcus faecium. The assay is described as follows: Anti-MDR bacterial activity against Enterococcus faecium CCARM 5203 assessed as inhibition of bacterial growth incubated for 18 hrs by microplate reader analysis. Format: functional.
The mark [1] stands for this setting: Staphylococcus aureus, CCARM 3090, 18 h, read-out: MIC.
Where [2] appears, read: Enterococcus faecalis, CCARM 5172, 18 h, read-out: MIC.
Where [3] appears, read: Pseudomonas aeruginosa, 15690, 18 h, read-out: MIC.
The mark [4] stands for this setting: Micrococcus luteus, ML01, 18 h, read-out: MIC.
Setting [5] is: Enterococcus faecium, CCARM 5203, 18 h, read-out: MIC.

Our source for the MIC values is ChEMBL document CHEMBL4840329, “Antibiotic Dixiamycins from a Cold-Seep-Derived Streptomyces olivaceus” (2021).

What is called MIC is the lowest concentration that inhibits growth of the organism.

≈ marks a conversion by molar mass, not a printed value. Bounds are passed on as bounds.

As to `C[C@@]1(C(=O)O)[C@@H](O)CC[C@]2(C)c3cc4c(cc3CC[C@@H]12)[nH]c1ccc(S(=O)(=O)c2c3c(cc5c2[nH]c2ccccc25)[C@@]2(C)CC[C@H](O)[C@@](C)(C(=O)O)[C@@H]2CC3)cc14`, the MIC in the assay on Staphylococcus aureus (setting [1]) was 12.5 µg/mL (≈ 15.8 µM); in the assay with Enterococcus faecalis (setting [2]), > 12.5 µg/mL; in the assay on Escherichia coli, > 12.5 µg/mL; with Salmonella typhimurium, > 12.5 µg/mL; in the assay on Pseudomonas aeruginosa (setting [3]), > 12.5 µg/mL; with Micrococcus luteus (setting [4]) it was > 12.5 µg/mL. Besides, the minimum inhibitory concentration (MIC) in the assay with Enterococcus faecium (setting [5]) was 6.25 µg/mL (≈ 7.92 µM).

As to `C[C@@]1(C(=O)O)[C@@H](O)CC[C@]2(C)c3cc4c(cc3CC[C@@H]12)[nH]c1ccc(-n2c3ccccc3c3cc5c(cc32)CC[C@H]2[C@](C)(C(=O)O)[C@@H](O)CC[C@]52C)cc14`, the MIC with Staphylococcus aureus (setting [1]) was 0.78 µg/mL (≈ 1.08 µM); in the assay on Enterococcus faecalis (setting [2]), 3.12 µg/mL (≈ 4.3 µM); in the assay on Escherichia coli, > 12.5 µg/mL; in the assay on Salmonella typhimurium, > 12.5 µg/mL; with Pseudomonas aeruginosa (setting [3]), 0.78 µg/mL (≈ 1.08 µM); in the assay with Micrococcus luteus (setting [4]) it was 3.12 µg/mL (≈ 4.3 µM). The MIC in the assay with Enterococcus faecium (setting [5]) amounted to 1.56 µg/mL (≈ 2.15 µM).

As to `C[C@@]1(C(=O)O)[C@@H](O)CC[C@]2(C)c3cc4c(cc3CC[C@@H]12)[nH]c1c(-n2c3ccccc3c3cc5c(cc32)CC[C@H]2[C@](C)(C(=O)O)[C@@H](O)CC[C@]52C)cccc14` (stereo in doubt; 1), the MIC is 3.12 µg/mL (≈ 4.3 µM) in the assay on Staphylococcus aureus (18 h); 6.25 µg/mL (≈ 8.62 µM) with Enterococcus faecalis (18 h); > 12.5 µg/mL with Escherichia coli; > 12.5 µg/mL in the assay with Salmonella typhimurium; 1.56 µg/mL (≈ 2.15 µM) with Pseudomonas aeruginosa (setting [3]); 6.25 µg/mL (≈ 8.62 µM) with Micrococcus luteus (18 h). In addition, the MIC with Enterococcus faecium (18 h) was 6.25 µg/mL (≈ 8.62 µM).

On to `C[C@@]1(C(=O)O)[C@@H](O)CC[C@]2(C)c3cc4c(cc3CC[C@@H]12)[nH]c1c(-n2c3ccccc3c3cc5c(cc32)CC[C@H]2[C@](C)(C(=O)O)[C@@H](O)CC[C@]52C)cccc14` (stereo in doubt; 2), for which the MIC with Staphylococcus aureus (18 h) worked out at 0.78 µg/mL (≈ 1.08 µM); in the assay on Enterococcus faecalis (18 h), 3.12 µg/mL (≈ 4.3 µM); in the assay with Pseudomonas aeruginosa, 1.56 µg/mL (≈ 2.15 µM); in the assay on Micrococcus luteus (18 h), 3.12 µg/mL (≈ 4.3 µM); in the assay with Enterococcus faecium (18 h), 3.12 µg/mL (≈ 4.3 µM).

`C[C@@]1(C(=O)O)[C@@H](O)CC[C@]2(C)c3cc4c5ccccc5n(-c5c6c(cc7c5[nH]c5ccccc57)[C@@]5(C)CC[C@H](O)[C@@](C)(C(=O)O)[C@@H]5CC6)c4cc3CC[C@@H]12` (stereo in doubt; 3): the MIC in the assay with Staphylococcus aureus (setting [1]) is 6.25 µg/mL (≈ 8.62 µM); in the assay on Enterococcus faecalis (setting [2]) it was > 12.5 µg/mL; in the assay with Escherichia coli it was > 12.5 µg/mL; with Salmonella typhimurium, > 12.5 µg/mL; in the assay on Pseudomonas aeruginosa (setting [3]), 6.25 µg/mL (≈ 8.62 µM); in the assay with Micrococcus luteus (setting [4]) it was > 12.5 µg/mL. In the assay with Enterococcus faecium (setting [5]), the MIC was 12.5 µg/mL (≈ 17.2 µM).

As for `C[C@@]1(C(=O)O)[C@@H](O)CC[C@]2(C)c3cc4c5ccccc5n(-c5c6c(cc7c5[nH]c5ccccc57)[C@@]5(C)CC[C@H](O)[C@@](C)(C(=O)O)[C@@H]5CC6)c4cc3CC[C@@H]12` (stereo in doubt; 4), the MIC in the assay with Staphylococcus aureus (18 h), in the assay with Pseudomonas aeruginosa (18 h) and with Enterococcus faecium (18 h) was >12.5 µg/mL each time.

Take `C[C@@]1(C(=O)O)[C@@H](O)CC[C@]2(C)c3cc4c5ccccc5n(-n5c6ccccc6c6cc7c(cc65)CC[C@H]5[C@](C)(C(=O)O)[C@@H](O)CC[C@]75C)c4cc3CC[C@@H]12` (stereo in doubt; 5): the MIC in the assay on Staphylococcus aureus (setting [1]) is 3.12 µg/mL (≈ 4.3 µM); in the assay with Enterococcus faecalis (18 h) it was 6.25 µg/mL (≈ 8.62 µM); in the assay with Escherichia coli, > 12.5 µg/mL; in the assay on Salmonella typhimurium, > 12.5 µg/mL; in the assay with Pseudomonas aeruginosa (18 h) it was 3.12 µg/mL (≈ 4.3 µM); in the assay on Micrococcus luteus (setting [4]), 6.25 µg/mL (≈ 8.62 µM). The MIC with Enterococcus faecium (setting [5]) was found to be 3.12 µg/mL (≈ 4.3 µM).

For `C[C@@]1(C(=O)O)[C@@H](O)CC[C@]2(C)c3cc4c5ccccc5n(-n5c6ccccc6c6cc7c(cc65)CC[C@H]5[C@](C)(C(=O)O)[C@@H](O)CC[C@]75C)c4cc3CC[C@@H]12` (stereo in doubt; 6), the MIC with Staphylococcus aureus (18 h) came to 1.56 µg/mL (≈ 2.15 µM); in the assay with Enterococcus faecalis (18 h), 1.56 µg/mL (≈ 2.15 µM); in the assay with Pseudomonas aeruginosa (18 h), 0.78 µg/mL (≈ 1.08 µM); in the assay on Micrococcus luteus, 6.25 µg/mL (≈ 8.62 µM); in the assay with Enterococcus faecium (18 h), 1.56 µg/mL (≈ 2.15 µM).

With `CN(C)[C@@H]1C(O)=C(C(N)=O)C(=O)[C@@]2(O)C(O)=C3C(=O)c4c(O)cccc4[C@@](C)(O)[C@H]3C[C@@H]12` [TETRACYCLINE], the MIC in the assay with Staphylococcus aureus (Staphylococcus aureus, CCARM 3090, read-out: MIC) was 6.25 µg/mL (≈ 14.1 µM); in the assay with Enterococcus faecalis (setting [2]) it was > 25 µg/mL; in the assay on Escherichia coli, 1.56 µg/mL (≈ 3.51 µM); in the assay with Salmonella typhimurium, > 25 µg/mL; in the assay with Pseudomonas aeruginosa (setting [3]), 12.5 µg/mL (≈ 28.1 µM); in the assay on Micrococcus luteus (setting [4]), 6.25 µg/mL (≈ 14.1 µM). For the same compound, the MIC with Enterococcus faecium (setting [5]) was found to be 1.56 µg/mL (≈ 3.51 µM).
